| SMILES | melting point |
| --- | --- |
| Cc1cc(CSCCC(=C(N)NCC(O)c2ccccc2)[N+](=O)[O-])sc1CN(C)C (configuration not stated) | 114 to 115 °C |
| O=[N+]([O-])c1ccc(CN2CCC(O)CC2)cc1 | 114 to 115 °C |
| CCOC(=O)CC(NC(=O)C(C)C)C(=O)c1ccco1 (configuration not stated) | 65 to 67 °C |
| CC(C)[C@H](NC(=O)[C@@H]1CCCN1C(=O)OCc1ccccc1)C(=O)O | 132 to 134 °C |
| Cc1cc(C)cc(C(=O)P2(=O)Oc3ccccc3-c3ccccc32)c1 (configuration not stated) | 120 to 124 °C |
| Cc1cc(C=NO)cc(Oc2nc(Cl)nc(Cl)c2C(C)C)c1 | 185 to 187 °C |
| CCCCCCCCCCCCCCCCCC1=NCCO1 | 52 to 53 °C |
| Cc1cnnc2c1C(=O)CC(c1ccccc1Cl)C2 (configuration not stated) | 108 to 109 °C |
| C#CCN1C(=O)c2ccccc2C1O (configuration not stated) | 157 to 159 °C |
| CN(C)C1(Cc2ccccc2)CCC(O)(c2csc3ccccc23)CC1 (configuration not stated) | 158 to 160 °C |
| Clc1cccc(Cl)c1Cc1c[nH]cn1 | 142 to 145 °C |
| COC(=O)c1nsc2nccn12 | 164 to 165 °C |
| CN(C)C1CC2=CNC=C3C=C(C(N)=O)OCC1=C32 (configuration not stated) | 182 to 183 °C |
| CC(C)(C)[Si](C)(C)OC1C(n2ccc(=O)[nH]c2=O)OC(CO)C1(O)C#C[Si](C)(C)C (configuration not stated) | 188 to 189 °C |
| CCCCCOC(=O)C(N)C=CCP(=O)(O)O (configuration not stated) | 160 to 161 °C |
| COc1cc2c(cc1OC)CCCCC(C(=O)N1CCN(C(=O)c3cc(OC)c(OC)c(OC)c3)CC1)=C2 | 170 to 171 °C |
| CC(O)Cc1c2c(cc3c(=O)cc(C(=O)O)oc13)CCCC2 (configuration not stated) | 235 °C |

Second part, the molecule after the results:

| melting point | SMILES |
| --- | --- |
| 211 to 212 °C | Cc1ccc(Sc2c(Cl)c(C(=O)O)c(C(O)=NCCO)c(Cl)c2Sc2ccc(C)cc2)cc1 |
| 148 to 149 °C | CCCCCCCCCCCCS(=O)(=O)Nc1cc(-c2cc3cc(F)c(F)cc3[nH]2)ccc1OC |
| 220 to 223 °C | CCCN(CO)c1nc(NCc2ccccc2)c2nc(Cl)n(C(C)C)c2n1 |
| 192 °C | Cc1cccc(C(=O)Nc2ccc(N3CCN(Cc4cccc(C#N)c4)CC3)cc2)c1-c1ccc(C(F)(F)F)cc1 |
| 118 to 119 °C | CC(=O)c1c(N(C)C)c(-c2ccccc2)n(Cc2ccc(Cl)cc2)c1C |
| 178 °C | CC(=O)N1CC(=O)N(C)C(=O)N1c1cc(Cl)c(C(C#N)c2ccc(Cl)cc2)c(Cl)c1 (configuration not stated) |
| 95 to 97 °C | FC(F)(F)c1cc(CO[C@@H]2CCCN(Cc3nc4ccccc4o3)[C@@H]2c2ccccc2)cc(C(F)(F)F)c1 (relative stereo) |
| 48 to 51 °C | Cc1nc(-c2ccccc2)c(-c2ccccc2)nc1N(C)CCCCOCC(=O)OC(C)(C)C |
| 147 to 149 °C | CCCCc1c(C(=O)N(C)Cc2ccc3c(Br)c(OCc4nnn[nH]4)ccc3c2)c2ccccc2n1C |
| 100 °C | CC(NC(=O)Cc1cc(F)cc(F)c1)C(=O)NC1C(=O)NC(c2ccccn2)c2ccccc21 (configuration not stated) |
| 115 to 116 °C | CCCCc1nc(Cl)c(CO)n1Cc1ccc(OCc2ccccc2)cc1 |
| 114 °C | COc1ccccc1Oc1cccc2c1NC(=O)C2SC (configuration not stated) |
| 139 to 141 °C | COc1ccccc1N1CCN(CCCNC(=O)c2cccc3c(=O)c(C)c(C4CC4)oc23)CC1 |
| 178 to 180 °C | COc1ccc2c(-c3ccc(C#Cc4ccccc4)cc3)cc(=O)oc2c1 |
| 71 to 73 °C | COC(=O)[C@H](Cc1ccccc1)NC(=O)N(Cc1ccccc1)NC(=O)OC(C)(C)C |
| > 330 °C | COc1ccc2[nH]c3c(c2c1)CC(=O)Nc1cccnc1-3 |
| 215 to 217 °C | COC(=O)CN1Cc2c([nH]c3ccccc23)C1=O |
| 88 °C | COC(=O)CCC#Cc1cc(Cl)ccc1NS(=O)(=O)c1ccc(C(C)=O)cc1 |
| 175 to 177 °C | CCn1ccc(Nc2cc(-c3cccc(N4Cc5cc(C(C)(C)C)ccc5C4=O)c3CO)cn(C)c2=O)n1 |
| 130 to 133 °C | COc1cccc([C@H]2O[C@H](Cc3nc(=O)o[nH]3)C(=O)N(CC(C)(C)C)c3ccc(Cl)cc32)c1OC |

Reference: a melting point compilation (Tetko et al.; mined from patent text by program, amines drawn as free bases though some values may be those of a salt)
